From ChEMBL document CHEMBL1201862, “PubChem BioAssay data set” (2004)
Active and inactive are the calls of the source.

Tests used:
[1] = viability loss of HPDE-C7K cells – cell-based, fluorescence, HTS, primary screen (AID 431); assay type: functional; details: Homo sapiens
[2] = molecular target: T1, Corticotropin-releasing factor receptor 2/Corticotropin-releasing factor-binding protein (Homo sapiens, UniProt P24387+Q13324); test: activators of CRF receptor 2 with binding protein – uHTS hits, confirmation (AID 602473); assay type: functional; details: read-out: EC50_Mean
T1 sequence (Q13324 whole entry): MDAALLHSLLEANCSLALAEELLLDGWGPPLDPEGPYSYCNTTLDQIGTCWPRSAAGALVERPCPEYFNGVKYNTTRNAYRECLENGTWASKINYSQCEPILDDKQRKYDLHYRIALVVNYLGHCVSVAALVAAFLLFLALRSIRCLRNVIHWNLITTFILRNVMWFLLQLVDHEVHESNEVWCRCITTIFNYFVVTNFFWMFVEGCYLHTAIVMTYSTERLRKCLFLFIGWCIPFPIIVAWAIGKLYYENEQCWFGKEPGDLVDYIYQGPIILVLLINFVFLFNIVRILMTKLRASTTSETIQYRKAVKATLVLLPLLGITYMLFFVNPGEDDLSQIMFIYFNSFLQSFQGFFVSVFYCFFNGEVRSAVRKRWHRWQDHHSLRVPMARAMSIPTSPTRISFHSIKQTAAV
T1 sequence (P24387 whole entry): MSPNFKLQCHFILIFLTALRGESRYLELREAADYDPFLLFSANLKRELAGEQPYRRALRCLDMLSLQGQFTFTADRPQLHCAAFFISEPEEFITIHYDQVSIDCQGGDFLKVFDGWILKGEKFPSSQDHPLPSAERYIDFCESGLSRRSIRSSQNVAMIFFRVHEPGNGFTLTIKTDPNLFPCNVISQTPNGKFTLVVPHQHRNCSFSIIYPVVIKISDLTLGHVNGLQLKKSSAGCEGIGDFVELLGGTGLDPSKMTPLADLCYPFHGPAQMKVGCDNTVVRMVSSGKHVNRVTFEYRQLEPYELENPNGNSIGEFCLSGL

[3] = molecular target: T1, Corticotropin-releasing factor receptor 2/Corticotropin-releasing factor-binding protein; test: Dose Response confirmation of uHTS hits for small molecule antagonists of the CRF-binding protein and CRF-R2 receptor complex.; assay type: functional; details: read-out: IC50_Mean
[4] = HPDE-C7 pancreatic duct cell viability loss – fluorescence, HTS (AID 430); assay type: functional, cell-based; details: Homo sapiens
Mucolipin-3 = Mucolipin-3 (Homo sapiens, UniProt Q8TDD5); test: Dose response cell-based high-throughput screening assay for agonists of the transient receptor potential channel ML3 (TRPML3). [Related pubchem assays: 1526, 1424, 1448 ]; assay type: functional
Mucolipin-3, sequence (Q8TDD5 whole entry): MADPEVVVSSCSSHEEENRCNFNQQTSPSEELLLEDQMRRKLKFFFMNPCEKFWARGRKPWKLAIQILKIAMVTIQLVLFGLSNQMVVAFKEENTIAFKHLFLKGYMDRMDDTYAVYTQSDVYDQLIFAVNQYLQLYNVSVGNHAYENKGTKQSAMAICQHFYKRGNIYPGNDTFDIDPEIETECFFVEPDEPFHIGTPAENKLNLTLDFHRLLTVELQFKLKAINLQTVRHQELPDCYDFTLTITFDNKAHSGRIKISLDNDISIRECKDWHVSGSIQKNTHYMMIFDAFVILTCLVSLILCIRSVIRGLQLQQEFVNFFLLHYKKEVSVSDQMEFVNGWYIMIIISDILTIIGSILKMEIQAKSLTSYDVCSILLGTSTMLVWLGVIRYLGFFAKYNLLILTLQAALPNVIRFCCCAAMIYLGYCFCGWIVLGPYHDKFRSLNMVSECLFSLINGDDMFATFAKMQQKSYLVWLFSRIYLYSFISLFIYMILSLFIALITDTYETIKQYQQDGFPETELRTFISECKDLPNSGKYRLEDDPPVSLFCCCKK

Ion channel NompC = Ion channel NompC (Danio rerio, UniProt Q7T1G6); test: Fluorescence counterscreen assay for TRPML3 agonists: dose response cell-based high-throughput screening assay to identify agonists of the transient receptor potential channel N1 (TRPN1). [Related pubchem assays: 1526, 1424, 1448 ]; assay type: functional
Ion channel NompC, sequence (Q7T1G6 whole entry): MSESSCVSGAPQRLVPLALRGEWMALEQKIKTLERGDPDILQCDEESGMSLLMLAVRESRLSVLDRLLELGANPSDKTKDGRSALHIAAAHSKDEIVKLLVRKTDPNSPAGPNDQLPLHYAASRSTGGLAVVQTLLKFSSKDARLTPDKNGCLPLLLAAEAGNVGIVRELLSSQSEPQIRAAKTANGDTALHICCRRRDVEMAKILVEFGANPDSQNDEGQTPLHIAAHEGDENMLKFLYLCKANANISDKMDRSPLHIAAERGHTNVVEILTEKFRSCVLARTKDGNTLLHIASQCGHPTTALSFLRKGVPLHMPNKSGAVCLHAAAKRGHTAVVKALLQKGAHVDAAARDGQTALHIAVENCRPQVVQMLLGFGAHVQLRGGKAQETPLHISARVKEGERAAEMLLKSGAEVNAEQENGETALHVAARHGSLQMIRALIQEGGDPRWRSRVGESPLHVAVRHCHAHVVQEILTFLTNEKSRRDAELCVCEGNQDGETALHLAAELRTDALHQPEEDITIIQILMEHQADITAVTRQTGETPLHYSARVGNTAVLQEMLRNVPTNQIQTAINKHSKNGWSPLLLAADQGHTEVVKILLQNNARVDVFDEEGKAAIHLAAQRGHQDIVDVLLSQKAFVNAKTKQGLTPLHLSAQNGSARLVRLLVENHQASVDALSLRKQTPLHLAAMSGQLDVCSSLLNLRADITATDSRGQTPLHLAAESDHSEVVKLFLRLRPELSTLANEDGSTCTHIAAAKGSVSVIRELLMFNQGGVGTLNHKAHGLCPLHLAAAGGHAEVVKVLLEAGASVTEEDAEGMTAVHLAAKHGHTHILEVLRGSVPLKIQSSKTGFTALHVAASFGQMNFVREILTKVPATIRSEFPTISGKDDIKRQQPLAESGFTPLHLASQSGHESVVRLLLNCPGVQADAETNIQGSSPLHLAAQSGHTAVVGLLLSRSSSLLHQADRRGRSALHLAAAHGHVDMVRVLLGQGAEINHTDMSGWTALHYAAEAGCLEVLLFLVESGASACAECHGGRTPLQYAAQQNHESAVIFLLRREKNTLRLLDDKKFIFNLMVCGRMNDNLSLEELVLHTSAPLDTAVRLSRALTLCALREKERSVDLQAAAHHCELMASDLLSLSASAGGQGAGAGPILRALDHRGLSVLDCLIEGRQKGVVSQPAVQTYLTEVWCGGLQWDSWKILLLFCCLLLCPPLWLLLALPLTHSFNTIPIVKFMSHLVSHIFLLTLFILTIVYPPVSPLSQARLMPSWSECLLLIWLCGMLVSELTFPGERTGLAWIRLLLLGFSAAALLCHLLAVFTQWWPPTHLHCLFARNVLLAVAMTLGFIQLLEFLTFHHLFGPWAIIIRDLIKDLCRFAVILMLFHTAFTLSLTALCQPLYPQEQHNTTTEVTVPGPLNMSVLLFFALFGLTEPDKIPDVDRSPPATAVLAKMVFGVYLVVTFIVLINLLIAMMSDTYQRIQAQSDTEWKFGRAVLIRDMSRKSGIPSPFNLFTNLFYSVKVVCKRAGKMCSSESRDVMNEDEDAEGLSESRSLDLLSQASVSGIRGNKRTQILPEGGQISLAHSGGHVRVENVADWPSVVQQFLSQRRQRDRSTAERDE

[5] = molecular target: T2, Aryl hydrocarbon receptor (Homo sapiens, UniProt P35869); test: Luminescence-based cell-based high throughput dose response assay for activators of the Aryl Hydrocarbon Receptor (AHR). [Related pubchem assays: 2796 (Primary screen (AHR activators in singlicate)), 2845 (Confirmation screen (AHR activators in triplicate)), 434939 (Counterscreen (PXR activators in triplicate)), 2804 (Summary (AHR activators))]; assay type: ADME
T2 sequence (P35869 whole entry): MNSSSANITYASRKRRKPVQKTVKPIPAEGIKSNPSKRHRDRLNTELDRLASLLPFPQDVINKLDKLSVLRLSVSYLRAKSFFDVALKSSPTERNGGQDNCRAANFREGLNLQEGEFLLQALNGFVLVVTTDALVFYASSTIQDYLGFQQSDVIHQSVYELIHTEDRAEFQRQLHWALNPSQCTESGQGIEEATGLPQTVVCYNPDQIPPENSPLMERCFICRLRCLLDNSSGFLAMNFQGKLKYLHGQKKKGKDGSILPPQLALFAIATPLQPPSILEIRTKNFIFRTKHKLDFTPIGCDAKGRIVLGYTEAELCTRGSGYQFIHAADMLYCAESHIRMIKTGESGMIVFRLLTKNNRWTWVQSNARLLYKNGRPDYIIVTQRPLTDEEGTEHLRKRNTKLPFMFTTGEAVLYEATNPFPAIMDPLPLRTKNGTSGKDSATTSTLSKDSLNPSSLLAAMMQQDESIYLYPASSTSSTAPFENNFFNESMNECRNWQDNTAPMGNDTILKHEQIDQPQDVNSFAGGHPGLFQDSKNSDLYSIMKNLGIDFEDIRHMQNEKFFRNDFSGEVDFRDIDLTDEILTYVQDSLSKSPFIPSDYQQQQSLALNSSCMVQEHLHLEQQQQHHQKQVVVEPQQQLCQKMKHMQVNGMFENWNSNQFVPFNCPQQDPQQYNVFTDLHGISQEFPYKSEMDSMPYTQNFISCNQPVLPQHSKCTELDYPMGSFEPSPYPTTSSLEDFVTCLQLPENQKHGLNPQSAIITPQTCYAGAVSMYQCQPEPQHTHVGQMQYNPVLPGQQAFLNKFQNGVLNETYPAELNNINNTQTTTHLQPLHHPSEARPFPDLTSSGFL

[6] = molecular target: T3, Mannose-6-phosphate isomerase (Homo sapiens, UniProt P34949); test: MPI inhibition at elevated mannose 6-phosphate – biochemical, fluorescence intensity, high mannose 6-phosphate, primary screen (AID 1220)
T3 sequence (P34949 whole entry): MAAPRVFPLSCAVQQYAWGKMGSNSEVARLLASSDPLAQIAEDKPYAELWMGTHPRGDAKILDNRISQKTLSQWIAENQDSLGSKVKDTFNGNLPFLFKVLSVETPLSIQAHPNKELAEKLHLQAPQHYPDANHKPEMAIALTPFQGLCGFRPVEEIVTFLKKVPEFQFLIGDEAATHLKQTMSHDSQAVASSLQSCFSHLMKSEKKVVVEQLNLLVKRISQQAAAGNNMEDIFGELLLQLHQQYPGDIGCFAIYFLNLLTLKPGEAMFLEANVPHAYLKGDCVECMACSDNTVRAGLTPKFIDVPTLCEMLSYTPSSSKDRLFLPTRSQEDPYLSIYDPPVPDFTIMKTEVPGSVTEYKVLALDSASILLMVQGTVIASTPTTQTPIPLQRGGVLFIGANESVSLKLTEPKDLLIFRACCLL

[7] = molecular target: DNA damage-inducible transcript 3 protein (Mus musculus, UniProt P35639); assay type: functional, Cricetulus griseus
DNA damage-inducible transcript 3 protein, sequence (P35639 whole entry): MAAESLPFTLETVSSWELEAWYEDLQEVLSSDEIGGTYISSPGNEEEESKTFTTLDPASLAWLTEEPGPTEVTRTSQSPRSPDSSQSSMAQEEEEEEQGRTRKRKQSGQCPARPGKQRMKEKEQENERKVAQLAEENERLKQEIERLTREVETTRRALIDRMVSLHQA

SUMO-activating enzyme [8] = molecular target: T4, SUMO-activating enzyme (Homo sapiens, UniProt Q9UBT2); test: blockers of UBC9-mediated SUMO conjugation – biochemical, AlphaScreen, SUMOylation inhibitor project, confirmation (AID 2018); assay type: functional
T4 sequence (Q9UBE0 whole entry): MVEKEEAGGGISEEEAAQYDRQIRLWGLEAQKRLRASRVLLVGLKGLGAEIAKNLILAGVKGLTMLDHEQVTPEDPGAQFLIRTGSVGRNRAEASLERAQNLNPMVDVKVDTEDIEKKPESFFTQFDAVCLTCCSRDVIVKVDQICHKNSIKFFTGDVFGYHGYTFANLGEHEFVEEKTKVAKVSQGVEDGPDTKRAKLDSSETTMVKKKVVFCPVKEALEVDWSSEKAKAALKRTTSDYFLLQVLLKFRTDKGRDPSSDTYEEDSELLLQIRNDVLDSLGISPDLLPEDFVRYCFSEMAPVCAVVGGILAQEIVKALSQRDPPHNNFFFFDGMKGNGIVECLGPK
T4 sequence (Q9UBT2 whole entry): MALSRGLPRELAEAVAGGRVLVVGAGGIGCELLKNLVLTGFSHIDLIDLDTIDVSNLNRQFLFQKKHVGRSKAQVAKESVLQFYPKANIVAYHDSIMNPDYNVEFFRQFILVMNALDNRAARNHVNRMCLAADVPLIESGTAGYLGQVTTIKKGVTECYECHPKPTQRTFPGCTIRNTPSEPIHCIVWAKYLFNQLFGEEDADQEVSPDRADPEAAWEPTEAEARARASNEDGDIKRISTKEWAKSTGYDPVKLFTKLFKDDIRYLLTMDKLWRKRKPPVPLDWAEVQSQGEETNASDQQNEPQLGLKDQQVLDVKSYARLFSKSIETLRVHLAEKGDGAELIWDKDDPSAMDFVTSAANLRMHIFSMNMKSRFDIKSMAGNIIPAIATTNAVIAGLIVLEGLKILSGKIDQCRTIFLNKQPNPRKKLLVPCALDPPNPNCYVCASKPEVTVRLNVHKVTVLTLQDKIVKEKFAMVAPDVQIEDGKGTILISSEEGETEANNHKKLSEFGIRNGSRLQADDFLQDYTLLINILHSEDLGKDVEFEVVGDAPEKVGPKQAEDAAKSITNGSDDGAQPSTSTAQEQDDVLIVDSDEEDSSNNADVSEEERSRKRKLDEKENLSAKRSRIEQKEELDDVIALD

[9] = molecular target: T3, Mannose-6-phosphate isomerase; test: MPI enzyme activity inhibition – biochemical, fluorescence intensity, coupled assay, primary screen (AID 1209)
Protein Tat = Protein Tat (Human immunodeficiency virus type 1 group M subtype B (isolate HXB2)(HIV-1), UniProt P04608); assay type: functional;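 also: tat binding to TAR RNA read out by fluorescence polarization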
Protein Tat, sequence (P04608 whole entry): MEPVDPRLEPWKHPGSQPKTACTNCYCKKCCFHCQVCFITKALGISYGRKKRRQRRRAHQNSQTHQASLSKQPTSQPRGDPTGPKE

[10] = NIH-3T3 fibroblast cytotoxicity, dose response, cytotoxicity control, cell-based, fluorescence, Alamar Blue, secondary assay (AID 2327); assay type: functional;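 also: NIH-3T3 mouse fibroblasts cultured with fluconazole at 8 µg/mL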
[11] = fluconazole-exposed Candida albicans growth modulators – fluorescence, retest, confirmation (AID 2467); assay type: functional, cell-based
[12] = Luminescence Cell-Based Dose Retest to Confirm Inhibitors of Cancer Stem Cells. [Related pubchem assays (depositor defined):AID2717, AID2721]; assay type: functional; details: Homo sapiens
NADPH oxidase 1 = NADPH oxidase 1 (Homo sapiens, UniProt Q9Y5S8); assay type: functional, cell-based;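 also: Cell-based assay with luminescence read-out, IC50 derived from inhibitor dose-response curves; intracellular ROS from endogenous NOX1 in intact HT29 colon cancer cells; potency of inhibitors that lower the ROS luminescence signal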
NADPH oxidase 1, sequence (Q9Y5S8 whole entry): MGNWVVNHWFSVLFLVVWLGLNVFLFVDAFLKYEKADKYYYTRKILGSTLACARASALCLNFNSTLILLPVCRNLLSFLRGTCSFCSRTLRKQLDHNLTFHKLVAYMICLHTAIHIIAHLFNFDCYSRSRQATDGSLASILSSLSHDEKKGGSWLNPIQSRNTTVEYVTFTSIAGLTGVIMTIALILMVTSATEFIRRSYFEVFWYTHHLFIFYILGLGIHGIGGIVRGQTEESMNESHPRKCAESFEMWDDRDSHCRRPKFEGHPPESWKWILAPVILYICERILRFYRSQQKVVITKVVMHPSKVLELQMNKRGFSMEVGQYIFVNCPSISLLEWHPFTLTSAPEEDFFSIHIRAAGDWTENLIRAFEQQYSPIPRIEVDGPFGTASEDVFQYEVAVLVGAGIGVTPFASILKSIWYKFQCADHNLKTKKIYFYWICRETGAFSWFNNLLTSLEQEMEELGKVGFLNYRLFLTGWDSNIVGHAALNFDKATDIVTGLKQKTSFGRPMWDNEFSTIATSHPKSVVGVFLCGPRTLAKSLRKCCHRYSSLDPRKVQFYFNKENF

Estrogen receptor beta [13] = molecular target: T5, Estrogen receptor beta (Homo sapiens, UniProt Q92731); test: blockers of SRC-3 recruitment to ERβ – biochemical, ELISA, streptavidin-HRP readout, orthogonal assay, confirmation (AID 1060)
T5 sequence (Q92731 whole entry): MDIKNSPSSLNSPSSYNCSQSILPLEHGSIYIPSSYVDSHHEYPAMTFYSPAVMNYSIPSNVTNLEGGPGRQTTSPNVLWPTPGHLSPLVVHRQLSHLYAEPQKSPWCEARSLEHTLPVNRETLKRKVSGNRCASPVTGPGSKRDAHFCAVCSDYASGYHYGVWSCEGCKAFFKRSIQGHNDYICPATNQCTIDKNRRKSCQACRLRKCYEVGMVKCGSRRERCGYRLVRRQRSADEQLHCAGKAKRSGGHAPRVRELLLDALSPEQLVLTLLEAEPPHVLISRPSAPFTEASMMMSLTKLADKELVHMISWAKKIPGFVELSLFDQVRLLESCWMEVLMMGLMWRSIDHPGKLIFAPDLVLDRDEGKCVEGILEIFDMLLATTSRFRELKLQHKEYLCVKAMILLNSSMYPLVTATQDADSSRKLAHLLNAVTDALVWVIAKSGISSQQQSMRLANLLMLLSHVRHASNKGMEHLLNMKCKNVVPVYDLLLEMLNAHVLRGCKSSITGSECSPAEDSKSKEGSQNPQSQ

Estrogen receptor beta [14] = molecular target: T5, Estrogen receptor beta
[15] = molecular target: Acyl-homoserine lactone acylase PvdQ (Pseudomonas aeruginosa (strain LESB58), UniProt Q9I194); test: PvdQ acylase enzyme activity blockers – biochemical, fluorescence, plate reader and imaging, cherry-picks, dose response (AID 493231)
[16] = molecular target: T6, Tyrosine-protein phosphatase non-receptor type 7 (Homo sapiens, UniProt P35236); test: HePTP tyrosine phosphatase activity blockers – biochemical, absorbance, leukemia target, primary screen (AID 521); assay type: functional
T6 sequence (P35236 whole entry): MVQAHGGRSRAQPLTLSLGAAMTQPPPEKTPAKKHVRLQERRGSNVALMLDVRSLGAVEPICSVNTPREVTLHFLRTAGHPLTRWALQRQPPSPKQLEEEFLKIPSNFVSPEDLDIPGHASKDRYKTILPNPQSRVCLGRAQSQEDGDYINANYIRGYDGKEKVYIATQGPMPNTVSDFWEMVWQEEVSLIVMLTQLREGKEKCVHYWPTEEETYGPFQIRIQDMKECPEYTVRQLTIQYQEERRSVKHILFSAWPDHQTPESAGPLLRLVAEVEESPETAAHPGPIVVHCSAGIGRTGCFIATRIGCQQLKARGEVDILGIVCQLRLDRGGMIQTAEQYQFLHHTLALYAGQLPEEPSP

[17] = molecular target: T7, Induced myeloid leukemia cell differentiation protein Mcl-1 (Homo sapiens, UniProt Q07820); assay type: functional
T7 sequence (Q07820 whole entry): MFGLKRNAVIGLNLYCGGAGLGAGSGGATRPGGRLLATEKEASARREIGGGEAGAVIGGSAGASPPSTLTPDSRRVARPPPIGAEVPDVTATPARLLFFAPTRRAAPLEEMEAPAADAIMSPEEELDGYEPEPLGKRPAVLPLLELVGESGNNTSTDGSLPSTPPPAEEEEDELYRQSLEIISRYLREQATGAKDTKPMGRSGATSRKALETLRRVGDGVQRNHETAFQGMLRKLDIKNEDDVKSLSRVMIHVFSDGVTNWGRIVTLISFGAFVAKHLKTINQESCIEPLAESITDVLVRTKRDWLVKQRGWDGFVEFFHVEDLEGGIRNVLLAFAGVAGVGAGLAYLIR

SUMO-activating enzyme [18] = molecular target: T4, SUMO-activating enzyme; test: blockers of SAE1/SAE2–UBC9 SUMO transfer – biochemical, HTRF, uHTS, primary screen (AID 2006); assay type: protein-complex assay
[19] = molecular target: Ras and Rab interactor 1/Tyrosine-protein kinase ABL1 (Homo sapiens, UniProt P00519+Q13671); assay type: functional;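 also: biochemical TR-FRET dose-response test measuring inhibition of binding between Rin1 and Abl proteins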
[20] = molecular target: T7, Induced myeloid leukemia cell differentiation protein Mcl-1; test: blockers of MCL1 binding to BIM peptide – biochemical, fluorescence polarization, BIM-BH3 peptide, 1536-well, dose response (AID 2217)
[21] = molecular target: T8, Small ubiquitin-related modifier 1 (Homo sapiens, UniProt P63165); test: SUMO1 protein interaction blockers, potency – biochemical, fluorescence polarization, uHTS hits, dose response (AID 624382); assay type: functional; details: read-out: IC50_Mean
T8 sequence (P63165 whole entry): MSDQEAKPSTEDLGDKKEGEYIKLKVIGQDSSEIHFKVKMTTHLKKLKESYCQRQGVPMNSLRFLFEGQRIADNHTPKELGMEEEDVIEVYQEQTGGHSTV

[22] = molecular target: T9, Bifunctional protein GlmU (Mycobacterium tuberculosis, UniProt P9WMN3); test: Inhibitors of Mycobacterial Glucosamine-1-phosphate acetyl transferase (GlmU). Secondary screen.; design: species or system Mycobacterium tuberculosis H37Rv
T9 sequence (P9WMN3 whole entry): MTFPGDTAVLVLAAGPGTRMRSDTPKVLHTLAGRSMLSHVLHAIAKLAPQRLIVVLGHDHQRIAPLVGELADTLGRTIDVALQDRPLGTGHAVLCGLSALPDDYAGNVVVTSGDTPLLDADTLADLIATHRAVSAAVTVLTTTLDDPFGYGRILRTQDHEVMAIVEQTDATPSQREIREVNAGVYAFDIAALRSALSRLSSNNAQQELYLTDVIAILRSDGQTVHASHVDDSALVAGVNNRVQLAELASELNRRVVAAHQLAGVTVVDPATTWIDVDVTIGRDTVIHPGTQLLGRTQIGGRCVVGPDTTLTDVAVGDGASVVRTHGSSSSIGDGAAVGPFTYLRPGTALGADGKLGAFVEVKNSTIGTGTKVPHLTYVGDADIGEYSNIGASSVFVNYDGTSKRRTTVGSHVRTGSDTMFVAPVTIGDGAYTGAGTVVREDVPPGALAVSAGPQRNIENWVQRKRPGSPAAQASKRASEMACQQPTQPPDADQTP

[23] = molecular target: T8, Small ubiquitin-related modifier 1; test: SUMO1 protein-protein binding blockers, potency – biochemical, FRET, dose response (AID 624383); assay type: functional; details: read-out: IC50_Mean
INS1 = test: INS-1E survival protection against cytokine death – cell-based, luminescence, retest, dose response (AID 449756); assay type: functional; details: Rattus norvegicus;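 also: cell death triggered by IL-1 beta plus TNF-alpha plus IFN-gamma mixture; protective hits raise ATP signal compared with cytokine alone wells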
Bcl-2-like protein 1 = Bcl-2-like protein 1 (Homo sapiens, UniProt Q07817); test: blockers of BCLXL peptide binding – biochemical, fluorescence polarization, 1536-well, selectivity assay for MCL1 inhibitor project, dose response (AID 2218)

C=C(C)COc1ccc(-c2n[nH]cc2Oc2ccccc2OC)c(O)c1
EC50 [1]: 9.78 µM (active)
EC50 [2]: > 53 µM (inactive)
IC50 [3]: 1.91 µM (active)
EC50 [4]: 12.3 µM (active)

O=S(=O)(Oc1ccccc1N1CCCCC1)c1ccccc1
EC50 (Mucolipin-3): > 29.9 µM (not active)
EC50 (Ion channel NompC): > 29.9 µM (not active)

COc1ccc(C(=O)Nc2cc(OC)c(NC(=O)c3ccco3)cc2OC)cc1
EC50 [5]: 1.76 µM (active)

CC1=Nc2nc3c(c4c(C#N)c(N5CCCCC5)nc(c24)N1)CC(=O)N3c1ccc(C(C)C)cc1.CN(C)C=O
IC50 [6]: > 50 µM (not active)
Absolute IC50 (CHOP) [7]: 10 µM
IC50 (SUMO-activating enzyme [8]): 11.7 µM (active)
IC50 [9]: > 50 µM (not active)
IC50 (Protein Tat): > 100 µM (active)

Cc1ccc(S(=O)(=O)c2c(C)nn(C(C)(C)C)c2OC(=O)c2ccc(Br)o2)cc1
EC50 [1]: 4.56 µM (active)
EC50 [10]: > 160 µM (inconclusive)
EC50 [4]: 4.41 µM (active)
EC50 [11]: 0.805 µM (active)
AC50 [12]: 1.67 µM (active)

COc1cc([N+](=O)[O-])ccc1NC(=O)Nc1ccc(Oc2ccccc2)cc1
IC50 (NADPH oxidase 1): > 17 µM (not active)

COc1cc(CCC(=O)OCC(=O)Nc2ncc(Cl)cc2Cl)cc(OC)c1OC
IC50 (Estrogen receptor beta [13]): 102 µM (not active)
IC50 (Estrogen receptor beta [14]): 9.58 µM (active)

COc1ccc(C(C#N)c2ccc(Cl)nn2)cc1 (stereo unspecified)
AC50 [15]: 6.48 µM (active)

COn1cnnc1-c1ccccc1
IC50 [16]: > 100 µM (not active)

N#CC(c1ccc(Cl)nn1)c1c(F)cccc1Cl (stereo unspecified)
AC50 [15]: 4.04 µM (active)

C=C(NNc1c(F)c(F)nc(F)c1F)c1ccncc1
IC50 (NADPH oxidase 1): > 17 µM (not active)

Cc1ccc(S(=O)(=O)c2c(C)nn(C(C)(C)C)c2OC(=O)C(C)(C)C)cc1
EC50 (Mucolipin-3): 5.15 µM (active)
EC50 (Ion channel NompC): > 29.9 µM (not active)

COC(=O)c1cc(O)cc(OC)c1Oc1cc(C)cc(O)c1C(=O)O [ASTERRIC ACID]
IC50 [17]: 2.42 µM (not active)
IC50 (SUMO-activating enzyme [18]): 17.7 µM (active)
IC50 [19]: 20.7 µM (inactive)
IC50 [20]: 5.48 µM (active)
IC50 [21]: > 66.6 µM (inactive)
IC50 [22]: 82.7 µM (active)
IC50 [23]: 8.12 µM (active)
AC50 (INS1): 8.13 µM (active)
IC50 (SUMO-activating enzyme [8]): 7.42 µM (active)
IC50 (Bcl-2-like protein 1): 54.2 µM (not active)
